Consider eight compounds from patent publication US20110046142A1, “ANTIBIOTIC COMPOUNDS” (priority 2007, published 2011).

Holding throughout (assay type): cell-based
In one assay the test system is wild type (WT) E. coli. The assay can be described thus: MIC, validation of screen hits. The following applies: Escherichia coli, read-out: MIC. As to the method:
To validate the screening, the activity of nitazole against strains with nitrate reductases deleted and in strains overexpressing nitrate reductases were tested. A prodrug activated by a nitrate reductase has lower activity against a strain lacking the enzyme, and a higher activity in an overexpression strain, as compared to a wild type. E. coli has two known […], NfnB and NfsA. Strains tested were wild type (WT) E. coli, two knockout strains lacking the 2 nitroreductases (NfnB−; NfsA−), and against two strains overexpressing the same enzymes (NfnB+ and NfsA+). MIC values for nitazole are shown below.

Assay [1] relates to E. coli K12 knockout pool (BacPool) and wild type. The assay can be described thus: Prodrug screen, growth/no growth of BacPool knockout mix versus wild type. The following applies: compounds at about 46-50 μg/ml, OD600 after overnight incubation. An excerpt:
A complete, ordered E. coli K12 knockout library of 4320 genes and predicted ORFs (the Keio library) was used (Baba et al. (2006). Mol. Systems Biol. 2:2006.0008). The knockouts were constructed using the Wanner method with a kanamycin cassette replacing the ORFs (Datsenko et al. (2000) Proc. Natl. Acad. Sci. USA 97:6640-6645). All strains of this library were combined in a mix BacPool1) for screening. This permitted screening of the library against all strains simultaneously, instead of screening a full industry-size library against each of the individual E. coli 4×10^3 knockout strains.
The library mix was prepared by first culturing all strains overnight in LB medium, and then adding equal aliquots into a tube. This material was then mixed, dispensed in vials and stored at −80° C. For the screen, one vial was thawed, diluted to 10^5 cells/ml in LB, and dispensed into 384 well microtiter plates. The compounds were added from DMSO stocks at a final concentration of 46 μg/ml. The same compounds were added to plates containing the wild type isogenic control. Screening was performed at the Harvard NSRB/NERCE screening facility that host a collection of 150,000 compounds (see Tables 1A and 1B). All screens at NSRB/NERCE were performed in duplicate, which strongly decreases the rate of false positives and negatives. For each tested molecule there are three possible scenarios when scoring for growth/no growth:
Growth in both the BacPool and K12 wells: indicates lack of antimicrobial activity;
Growth inhibition in both the BacPool and K12 wells: a possible antibiotic (direct activity) or generally toxic compound is present, but is not a prodrug; or
Growth of a BacPool well and no growth of the K12 well: a prodrug hit.
After an overnight incubation of plates at 37° C., the plates were read at OD600. Compounds that had no effect on the growth of the mix and inhibited the growth of the wild type were recorded as hits. The wells with growth indicated a prodrug hit that is not converted into a drug by a particular deletion mutant in the mix. The mutant strain is then identified in a secondary screen (see Example 2).
Yet another screen was performed on 147,500 compounds, using the protocol described below. […]
An E. coli KanR culture was grown in LB broth containing 50 μg/ml Kanamycin for 20 hrs at 37° C. in a shaking incubator. […] The plates were then incubated for 20 hrs at 37° C., and then the plates were read for Optical Density at 600 nm and were scored for growth/no growth. […]
Hits were identified by calculating the % of inhibition of growth of E. coli measured by OD600. The data were analyzed as follows: negative controls (N), positive controls (P), and compounds (X) ODs were separately averaged and the resulting means were used to calculate % of inhibition of E. coli growth: […]

Another assay concerns E. coli K12 wt. The assay can be described thus: MIC, standard broth microdilution assay. The following applies: LB broth, 10^5 cells per well, 1 mM IPTG. As to the method: (§1) The ASKA strains of interest are validated for functional expression of the enzyme. If the protein is not expressed from a given expression vector the ORF is recloned. A strain overexpressing the activating enzyme from the ASKA library is then tested with the hit compound. If the hit has greater activity against this overexpressing strain as compared to the wild type, this indicates a prodrug. The test is performed in a standard broth microdilution assay for MIC determination. Hits with the lowest wild type MIC are then examined.
(§2) Cells were tested in a standard broth microdilution assay, inoculating 10^5 cells per well of a microtiter plate in LB broth. Overexpression and deletion strains were compared to the appropriate isogenic wild type. IPTG was added at 1 mM to growth medium. Experiments involving nfnB and nfsA strains were performed under anaerobic conditions.
(In general: In broth dilution the organism is exposed to a series of concentrations in liquid medium.)

The subject of assay [2] is E. coli K12 overexpressing activating enzyme. Put plainly: MIC, standard broth microdilution assay, overexpression strains. As to the method:
as §1, §2

In assay [3] the test system is E. coli K12 Δactivating enzyme. The assay can be described thus: MIC, standard broth microdilution assay, deletion strains. As to the method: as §1, §2
Assay [4] relates to E. coli K12 ΔtolC overexpressing activating enzyme. The assay can be described thus: MIC, standard broth microdilution assay, tolC deletion (MDR efflux).
Text: Prodrugs are activated by activating enzymes into reactive molecules that bind to their targets, creating an irreversible sink. This may lead to insensitivity of the overall process to MDR efflux. In order to test this possibility, an E. coli K12 with a deletion in tolC coding for the outer membrane porin that is a component of the transenvelope MDRs was utilized (Li (2004) Drugs 64:159-204). This strain is highly sensitive to antibiotics (Tegos et al. (2002) Antimicrob. Agents Chemother. 46:3133-3141). […] The substrate specificity of AcrAB is remarkably broad, and includes essentially all small molecular weight amphipathic compounds. The AcrAB substrates include anions (SDS, fatty acids, bile acids), neutral compounds (macrolides, chloramphenicol, tetracyclines) and cations or compounds that can form cations (acridine, quaternary compound antiseptics, fluoroquinolones). AcrAB can extrude a natural broad spectrum antibiotics that evolved for good penetration, chloramphenicol and tetracycline; and also extrude synthetic broad-spectrums, the fluoroquinolones.
as §2

The subject of a further assay is P. aeruginosa. Put plainly: Killing of logarithmic, stationary and biofilm cultures, colony count. As to the method:
Persister cells in planktonic and biofilm populations are characterized for their antibiotic sensitivity in this example. Several bactericidal antimicrobials were chosen to test the resistance of P. aeruginosa to killing—ofloxacin, a fluoroquinolone; tobramycin, an aminoglycoside; carbenicillin, a β-lactam; and peracetic acid, a disinfectant oxidant (Spoering et al. (2001) J. Bacteriol. 183:6746-6751). Biofilms were grown essentially by the method of Ceri (Ceri et al. (1999) J. Clin. Microbiol. 37:1771-1776) and as described in Brooun et al. (2000) Antimicrob. Agents Chemother. 44:640-646. The device used for biofilm formation is a platform carrying 96 polystyrene pegs that fit in a microtiter plate. Preformed biofilms were incubated in the presence of an antimicrobial agent, and survival was measured after disrupting the biofilms by colony count.
Logarithmic state, stationary and biofilm cultures were challenged with carbenicillin. Carbenicillin is a bactericidal antibiotic that, similarly to most β-lactams, only kills rapidly growing cells (Tuomanen et al. (1986) Scand. J. Gastroenterol. Suppl:10-14). […] The amount of killing of logarithmic cells approached a plateau at concentrations above 1.67×MIC, indicating the presence of a persister subpopulation. These 0.1% cells in the rapidly growing logarithmic culture were invulnerable to killing by carbenicillin at 600 μg/ml.
Unlike carbenicillin, ofloxacin can kill non-growing cells (Brooun et al. (2000) Antimicrob. Agents Chemother. 44:640-646). Logarithmic, stationary and biofilm cultures were challenged with ofloxacin over a wide range of concentrations, from 1×MIC (0.5 μg/ml) to 30×MIC (15 μg/ml). After a 6 hrs incubation time with the antibiotic, viability was determined by colony count. The majority of cells in the three populations examined were killed at low concentrations of ofloxacin (FIG. 3B). The killing in all three cultures was distinctly biphasic, indicating the presence of persister cells. The levels of persisters were dramatically higher in the dense stationary planktonic and biofilm cultures as compared to logarithmic cells. […] At 5 μg/ml ofloxacin, which is the clinically achievable concentration (Schulz et al. (1997) Pharmazie 52:895-911), the percentage of live cells was 0.001% in the logarithmic population, 0.1% in the biofilm and 2.5% in the stationary culture (FIG. 3B).
Tobramycin at 50 μg/ml (the maximal clinically achievable concentration is 10 μg/ml), (Schulz et al. (1997) Pharmazie 52:895-911) eliminated 90% of the biofilm cells, and the remaining population declined gradually with increasing amounts of the antibiotic. At high concentrations surviving persisters became apparent. Tobramycin was ineffective against stationary planktonic cells, apparently due to the dependence of killing of growth.
Peracetic acid, an oxidizing disinfectant, was used in order to test the ability of a sterilizing agent to act against persisters. […] Similar results showing biphasic killing, and high level of persisters in stationary and biofilm populations, also were obtained with S. aureus and E. coli (Keren et al. (2004) FEMS Microbiol. Lett. 230:13-18).

Setting [5] is: Escherichia coli, K12WT, read-out: MIC.
Where [6] appears, read: nfnB^+ overexpressing strain, 1 mM IPTG, anaerobic conditions.
The mark [7] stands for this setting: nfsA^+ overexpressing strain, 1 mM IPTG, anaerobic conditions.
[8] abbreviates: nfnB^− deletion strain, anaerobic conditions.
The mark [9] stands for this setting: nfsA^− deletion strain, anaerobic conditions.
Where [10] appears, read: ΔtolC, nfnB^+ overexpressing strain.
Setting [11] is: ΔtolC, nfsA^+ overexpressing strain.

Molecules are shown by their SMILES. Values after ≈ are worked out from the molar mass of the structure shown. Read-outs that look alike come from different tables or passages of the source.

As a reminder, the MIC is the smallest concentration in the dilution series that meets the test's criterion for growth inhibition.

For the compound `S=C(Nc1cccc(Cl)c1)Nc1cccc(Cl)c1` [PD18, thiourea, N,N′-bis(3-chlorophenyl)-(9CI)], the MIC in the assay on wild type (WT) E. coli came out at 25 µg/mL (≈ 84.1 µM). Further, the “screen outcome (prodrug hit / direct activity)” value in assay [1] is on record as “prodrug hits”.
For the compound `Nc1nc(O)ncc1F` [5-fluorocytosine, 5-Fluorocytosine], the MIC is greater than 2500 µg/mL in the assay with E. coli K12 wt (setting [5]); 625 µg/mL (≈ 4840 µM) in assay [2] (Escherichia coli); greater than 2500 µg/mL in assay [3] (Escherichia coli, codA^− deletion strain); 625 µg/mL (≈ 4840 µM) in assay [4] (Escherichia coli).
For the compound `CC(=O)OO` [Peracetic acid], the sterilization of cultures entry with P. aeruginosa (logarithmic, stationary and biofilm cultures) is given as “all cultures were sterilized”.
For the compound `Nc1nc(F)nc2c1ncn2[C@@H]1O[C@H](CO)[C@@H](O)[C@@H]1O` [Fludarabine], the MIC in the assay on E. coli K12 wt (setting [5]) is greater than 500 µg/mL; in assay [2] (Escherichia coli) it was 125 µg/mL (≈ 438 µM); in assay [3] (Escherichia coli, deoD^− deletion strain), greater than 500 µg/mL; in assay [4] (Escherichia coli), 125 µg/mL (≈ 438 µM).
Consider `NC(=O)c1cc(N2CC2)c([N+](=O)[O-])cc1[N+](=O)[O-]` [Dinitroaziridinylbenzamide (CB1954), Dinitroaziridinylbenzamide], for which the MIC in the assay on E. coli K12 wt is greater than 200 µg/mL; in assay [2] (setting [6]), “nfnB^+ 3.3 μg/ml”; in assay [2] (setting [7]), “nfsA^+ 6.3 μg/ml”; in assay [3] (setting [8]), “nfnB^− > 200 μg/ml”; in assay [3] (setting [9]), “nfsA^− > 200 μg/ml”; in assay [4] (setting [10]) it was “nfnB^+ 3.3 μg/ml”. The MIC result in assay [4] (setting [11]) is listed as “nfsA^+ 6.3 μg/ml”.
Consider `CC1(C)S[C@@H]2[C@H](NC(=O)C(C(=O)O)c3ccccc3)C(=O)N2[C@H]1C(=O)O` (stereo partly drawn) [carbenicillin], for which the “killing of biofilm cells” value with P. aeruginosa (biofilm) is “resistant to killing”. For the same compound, in the assay with P. aeruginosa (logarithmic cells), the “concentration at which the majority of logarithmic cells were killed” value stood at 1.67 ×MIC. Moreover, the “cells invulnerable to killing (persister subpopulation)” value in the assay on P. aeruginosa (rapidly growing logarithmic culture, 600 μg/ml) is given as 0.1%. The “killing of stationary cells” value in the assay on P. aeruginosa (stationary planktonic cells) is recorded as “little killing”.
For the compound `NC(=O)c1cc([N+](=O)[O-])cc([N+](=O)[O-])c1` [3,5-Dinitrobenzamide], the MIC against E. coli K12 wt was 250 µg/mL (≈ 1180 µM); in assay [2] (setting [6]), “nfnB^+ 15.6 μg/ml”; in assay [2] (setting [7]), “nfsA^+ 7.8 μg/ml”; in assay [3] (setting [8]), “nfnB^− > 500 μg/ml”; in assay [3] (setting [9]), “nfsA^− > 500 μg/ml”; in assay [4] (setting [10]), “nfnB^+ 15.6 μg/ml”. Moreover, the MIC entry in assay [4] (setting [11]) is given as “nfsA^+ 7.8 μg/ml”.
Take `CC[C@H]1OC(=O)[C@H](C)[C@@H](O[C@H]2C[C@@](C)(OC)[C@@H](O)[C@H](C)O2)[C@H](C)[C@@H](O[C@@H]2O[C@H](C)C[C@H](N(C)C)[C@H]2O)[C@](C)(O)C[C@@H](C)C(=O)[C@H](C)[C@@H](O)[C@]1(C)O` [Erythromycin]: the MIC in the assay on E. coli K12 wt (setting [5]) was 200 µg/mL (≈ 273 µM); in assay [2] (Escherichia coli) it was 200 µg/mL (≈ 273 µM); in assay [2] (codA^+ overexpressing strain, 1 mM IPTG), “codA^+ 200 μg/ml”; in assay [2] (deoD^+ overexpressing strain, 1 mM IPTG) it was “deoD^+ 200 μg/ml”; in assay [2] (setting [7]), “nfsA^+ 200 μg/ml”; in assay [4] (Escherichia coli) it was 1.56 µg/mL (≈ 2.13 µM). The MIC result is recorded as “codA^+ 1.56 μg/ml” in assay [4] (ΔtolC, codA^+ overexpressing strain); “deoD^+ 1.56 μg/ml” in assay [4] (ΔtolC, deoD^+ overexpressing strain); “nfnB^+ 1.56 μg/ml” in assay [4] (setting [10]); “nfsA^+ 1.56 μg/ml” in assay [4] (setting [11]).
